Experimental data as given in paper PMC8330795, “In silico identification and experimental validation of cellular uptake by a new cell penetrating peptide P1 derived from MARCKS” (Drug Delivery, 2021).

Experiments:
[1] = tested on: HSC-T6 cells; test: Cellular uptake of FITC-labeled peptide, fluorescence microscopy and lysate fluorescence; type: cell-based, rat
Method: Cells were suspended in regular culture media and seeded on coverslip in a 24-well plate at a concentration of 1.6 × 10^4 cells/well. Rinsing with PBS twice after 24 h of incubation for cell attachment, FITC-labeled peptides at indicated concentrations were added with 0.5 ml serum-free media/well and incubated for 1 hour at 37 °C. After incubation, the cells were washed with PBS at least three times. 4′,6-diamidino-2-phenylindole (DAPI) was added to each well and incubated for 5 min after fixation with 4% paraformaldehyde (PFA) in PBS. The cells were washed with PBS, mounted on the slide, and observed by fluorescence microscopy (Nikon, Tokyo, Japan). To analyze the internalization efficiency of CPP, the fluorescence of cell lysates and supernatants was measured using TECAN Safire multi-well reader with excitation and emission wavelengths set to 485 nm and 535 nm, following the protocol published (Wang et al., [2010]; Ma et al., [2015]; Wang et al., [2016]; [2016]; Zhou et al., [2017]; Shao et al., [2016]; Zhang et al., [2019]; Geng et al., [2020]). After the cell incubation with peptide and washing step described above, cells were lysed with 300 µl lysis buffer (0.1 M NaOH) for 10 minutes and centrifuged at 800 rpm for 5 minutes. Fluorescence in the 50 µl supernatant transferred to a 96-well plate was monitored by the plate-reader spectrophotometer (Tecan, Mannedorf, Switzerland). The amount of FITC-labeled peptides internalized were normalized by protein concentration, and the experiments indicated were repeated at least three times.

[2] = tested on: MCF7; test: as above; type: cell-based, human; conditions: FITC-labeled peptide 5 μM; MCF7 compared with other cell lines
Method: (§1) Cells were suspended in regular culture media and seeded on coverslip in a 24-well plate at a concentration of 1.6 × 10^4 cells/well. Rinsing with PBS twice after 24 h of incubation for cell attachment, FITC-labeled peptides at indicated concentrations were added with 0.5 ml serum-free media/well and incubated for 1 hour at 37 °C. After incubation, the cells were washed with PBS at least three times. 4′,6-diamidino-2-phenylindole (DAPI) was added to each well and incubated for 5 min after fixation with 4% paraformaldehyde (PFA) in PBS. The cells were washed with PBS, mounted on the slide, and observed by fluorescence microscopy (Nikon, Tokyo, Japan).
(§2) To analyze the internalization efficiency of CPP, the fluorescence of cell lysates and supernatants was measured using TECAN Safire multi-well reader with excitation and emission wavelengths set to 485 nm and 535 nm, following the protocol published (Wang et al., [2010]; Ma et al., [2015]; Wang et al., [2016]; [2016]; Zhou et al., [2017]; Shao et al., [2016]; Zhang et al., [2019]; Geng et al., [2020]). After the cell incubation with peptide and washing step described above, cells were lysed with 300 µl lysis buffer (0.1 M NaOH) for 10 minutes and centrifuged at 800 rpm for 5 minutes. Fluorescence in the 50 µl supernatant transferred to a 96-well plate was monitored by the plate-reader spectrophotometer (Tecan, Mannedorf, Switzerland). […]

[3] = tested on: BV2 cells; test: as above; type: cell-based, mouse; conditions: FITC-labeled peptide 5 μM
Method: as §1, §2

[4] = tested on: Mouse erythrocytes; test: Hemolysis assay; type: cell-based; conditions: mouse erythrocytes in PBS, 37 °C, 2 h, absorbance 450 nm; 0.1% Triton X-100 positive control
Method: Mouse erythrocytes free of plasma components were separated by centrifugation at 1000 rpm for 5 minutes and washed three times with PBS. The washed mouse erythrocytes were resuspended in PBS and treated with indicated concentrations of peptides at 37 °C for 2 h. Hemolysis was examined by measuring the absorbance of supernatant at the wavelength of 450 nm, and 0.1% Triton X-100 was used as a positive control.

[5] = tested on: BV2; test: Peptide-mediated transfection of pdsRed plasmid, RFP expression; type: cell-based, mouse; conditions: BV2, 80:1 group
Method: HSC-T6, BV2 and MCF7 cells (4 × 10^4 cells/well) were seeded onto 24-well plates 24 h before the experiment. Cells were incubated with CPP-P1/pDNA complexes at indicated N/P ratios for 4 hrs in serum-free media, and then were incubated for 24 h or 48 h after adding media with 10% serum. Live cell imaging under fluorescence microscope was carried out to estimate peptide-based transfection efficiency. Cells transfected with TurboFectin (OriGene, Beijing, China) were used as positive transfection reagent.

[6] = tested on: HSC-T6 cells
Method: Cytotoxicity was measured using MTT assay. Grown cells were inoculated for 24 h at a density of 10000 cells/well in 96-well plates. After washing with PBS, the indicated concentrations of peptides were added, following by further incubation for 24 h or 48 h. After at least two-times washing, 5 mg/ml MTT dissolved in PBS with serum-free media was added into plates for another 4 h incubation. Dimethyl sulfoxide (DMSO) was added into plates and incubated at 37 °C for 15–30 minutes to dissolve the formazan crystals. The absorbance of aliquot from each well was measured at 490 nm using a Multiskan Spectrum (Thermo Fisher Scientific, Waltham, MA, USA) microplate reader. Experiments were repeated three times.

KKKKKRFSFKKSFKLSGFSFKKNKK [P1]
penetration efficiency with chloroquine (CQ) ([1]; 100 μM CQ, fluorescent quantification, Figure S6, cell line not stated at place): no obvious effect | fluorescence of peptide versus incubation time ([1]; FITC-labeled peptide 5 μM, after 1 hour treatment, longer incubation times, images and fluorescence quantification): significantly decreased as incubation time increased | penetration property versus peptide concentration ([1]; FITC-labeled peptide, 1 hour, 37 °C, serum-free media, fluorescence normalized with protein concentration): concentration dependent | penetration efficiency with sucrose ([1]; peptide 5 μM with 0.3 M and 0.6 M sucrose, cell line not stated at place): inhibited | penetration efficiency with penetration enhancer DMSO ([1]; peptide 5 μM with 5% DMSO (2.5% and 5% tested), cell line not stated at place): enhanced | penetration efficiency at low temperature ([1]; peptide 5 μM, 25 °C and 4 °C compared to 37 °C): significantly inhibited | uptake inhibited by endocytosis inhibitors ([1]; peptide 5 μM, same inhibitor list, inhibitor giving this value not specified): about 20% | penetration efficiency compared with other published CPPs ([1]; peptides 5 μM, FITC-labeled, versus MT23 and TAT, cell line not stated at place): higher penetration efficiency than MT23 and TAT | penetration efficiency in different cell lines [2]: higher penetration efficiency in MCF7 | penetration into hard-to-translocate cells [3]: could enter into hard-to-translocate BV2 cells in significant amount | hemolysis of red blood cells [4]: minimally perturbed | RFP expression at N/P 80:1 [5]: could not find RFP positive cells | cytotoxicity, MTT assay [6]: did not find significant cytotoxicity
